Structures can show the parent of a compound that is named as a salt.
Key:
MYB mRNA = experiment: Splicing RT-qPCR assay, MYB canonical (CJ) and alternative (AJ) junction mRNA; type: cell-based; conditions: Homo sapiens, A673 or K562 cells, 24 hours treatment; for IC50: decrease in CJ mRNA; for AC50: increase in AJ mRNA
Outline: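 Compound-treated A673 or K562 cells (11-point 3-fold dilution, top dose 10 uM final, DMSO ≤0.25%) were incubated for 24 h at 37° C. Lysates underwent one-step RT-qPCR for canonical and alternative-exon junction isoforms. Normalization used PPIA for A673 and GAPDH or GUSB for K562.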

[1] = test system: HiBiT-tagged MYB protein in K562 cells; experiment: HiBiT protein abundance assay, MYB; type: cell-based, human; conditions: HiBiT-modified K562 cells, 24 hours, luminescence
Outline: (§1)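 K562 lines with the endogenous target HiBiT-tagged, seeded in IMDM+1% FBS, got a 10-point 3-fold dilution series (top final 10 μM, DMSO ≤0.25%) for 24 hours at 37° C. Lytic LgBiT luminescence was normalized against unmodified-K562 and DMSO-only controls, and IC50 was interpolated at 50% from a four-parameter logistic fit.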

[2] = test system: HiBiT-tagged Target C protein in K562 cells; experiment: HiBiT protein abundance assay, Target C; type: cell-based, human; conditions: HiBiT-modified K562 cells, 24 hours, luminescence
Outline: as §1

[3] = test system: HiBiT-tagged HTT protein in K562 cells; experiment: HiBiT protein abundance assay, HTT; type: cell-based, human; conditions: HiBiT-modified K562 cells, 24 hours, luminescence
Outline: as §1

Row | SMILES | IC50 (MYB mRNA) [nM] | IC50 [1] [nM] | IC50 [2] [nM] | IC50 [3] [nM] | AC50 (MYB mRNA) [nM]
1 | Cn1cc2cc(-c3nc4ncn(C5CCNCC5)c(=O)c4s3)c(O)cc2n1 [Compound 253, 2-(6-hydroxy-2-methyl-2H-indazol-5-yl)-6-(piperidin-4-yl)thiazolo[4,5-d]pyrimidin-7(6H)-one, hydrochloride] | 1000 to 10000 | 1000 to 10000 | 1000 to 10000 | 1000 to 10000 | 1000 to 10000
2 | Cc1cn2cc(-c3nn4c(=O)cc(N(C)C5CC(C)(C)NC(C)(C)C5)nc4s3)cc(F)c2n1 [Compound 215, 2-(8-fluoro-2-methylimidazo[1,2-a]pyridin-6-yl)-7-(methyl(2,2,6,6-tetramethylpiperidin-4-yl)amino)-5H-[1,3,4]thiadiazolo[3,2-a]pyrimidin-5-one] | 1000 to 10000 | 1000 to 10000 | > 10000 | > 10000 | 1000 to 10000
3 | Cc1cn2cc(-n3cnc4nc(N5CCNCC5)sc4c3=O)cc(C(F)(F)F)c2n1 [Compound 229, 6-(2-methyl-8-(trifluoromethyl)imidazo[1,2-a]pyridin-6-yl)-2-(piperazin-1-yl)thiazolo[4,5-d]pyrimidin-7(6H)-one] | > 10000 | > 10000 | > 10000 | > 10000 | > 10000
4 | Cc1cn2cc(-n3cnc4nc(N5CCN(C)CC5)sc4c3=O)cc(C(F)(F)F)c2n1 [Compound 230, 6-(2-methyl-8-(trifluoromethyl)imidazo[1,2-a]pyridin-6-yl)-2-(4-methylpiperazin-1-yl)thiazolo[4,5-d]pyrimidin-7(6H)-one] | 100 to 1000 | > 10000 | > 10000 | > 10000 | 100 to 1000
5 | Cn1cc2cc(-n3cnc4nc(N5CCNCC5)sc4c3=O)ccc2n1 [Compound 225, 6-(2-methyl-2H-indazol-5-yl)-2-(piperazin-1-yl)thiazolo[4,5-d]pyrimidin-7(6H)-one] | > 10000 | > 10000 | > 10000 | > 10000 | > 10000
6 | Cc1cn2cc(-c3nn4c(=O)cc(N5CCN(C)C6(CC6)C5)nc4s3)cc(F)c2n1 [Compound 218, 2-(8-fluoro-2-methylimidazo[1,2-a]pyridin-6-yl)-7-(4-methyl-4,7-diazaspiro[2.5]octan-7-yl)-5H-[1,3,4]thiadiazolo[3,2-a]pyrimidin-5-one] | 1000 to 10000 | 1000 to 10000 | 1000 to 10000 | 1000 to 10000 | 1000 to 10000
7 | Cc1cc(-c2cc(=O)n3nc(N4CCN(C)CC4)sc3n2)cc2cn(C)nc12 [Compound 157, 7-(2,7-dimethyl-2H-indazol-5-yl)-2-(4-methylpiperazin-1-yl)-5H-[1,3,4]thiadiazolo[3,2-a]pyrimidin-5-one] | > 10000 | > 10000 | > 10000 | > 10000 | > 10000
8 | Cn1cc2cc(-c3cc4ncn(C5CCNCC5)c(=O)c4s3)c(F)cc2n1 [Compound 258] | 100 to 1000 | 100 to 1000 | 1000 to 10000 | 100 to 1000 | 100 to 1000
9 | Cc1cn2nc(-c3cc4ncn(C5CCNCC5)c(=O)c4s3)cc(C)c2n1 [Compound 238, 6-(2,8-dimethylimidazo[1,2-b]pyridazin-6-yl)-3-(piperidin-4-yl)thieno[3,2-d]pyrimidin-4(3H)-one] | 100 to 1000 | 100 to 1000 | 1000 to 10000 | 100 to 1000 | 100 to 1000
10 | Cc1cc(-c2nn3c(=O)cc(N4CCN(C)CC4)nc3s2)cc2cn(C)nc12 [Compound 210, 2-(2,7-dimethyl-2H-indazol-5-yl)-7-(4-methylpiperazin-1-yl)-5H-[1,3,4]thiadiazolo[3,2-a]pyrimidin-5-one] | 1000 to 10000 | 1000 to 10000 | 1000 to 10000 | 1000 to 10000 | 1000 to 10000
11 | Cc1cn2nc(-c3nc4ncn(C5CCNCC5)c(=O)c4s3)cc(C)c2n1 [Compound 231, 2-(2,8-dimethylimidazo[1,2-b]pyridazin-6-yl)-6-(piperidin-4-yl)thiazolo[4,5-d]pyrimidin-7(6H)-one] | 100 to 1000 | 100 to 1000 | 100 to 1000 | 100 to 1000 | 100 to 1000

Now from value to compound, other results behind:

Row | IC50 (MYB mRNA) [nM] | IC50 [1] [nM] | IC50 [2] [nM] | IC50 [3] [nM] | SMILES | AC50 (MYB mRNA) [nM]
12 | > 10000 | > 10000 | > 10000 | > 10000 | Cc1cn2cc(N3CCc4cc(C5CCNCC5)sc4C3=O)cc(F)c2n1 [Compound 800, 6-[8-fluoro-2-methylimidazo[1,2-a]pyridin-6-yl]-2-(piperidin-4-yl)-4H,5H-thieno[2,3-c]pyridin-7-one] | > 10000
13 | 1000 to 10000 | 1000 to 10000 | > 10000 | 1000 to 10000 | Cc1nc(-c2nc3cnn(C4CCNCC4)c(=O)c3s2)cc2cn(C)nc12 [Compound 811] | 1000 to 10000
14 | 1000 to 10000 | 1000 to 10000 | 1000 to 10000 | 1000 to 10000 | Cc1cn2cc(-c3cc4ncn(C5CCNCC5)c(=O)c4s3)ncc2n1 [Compound 264] | 1000 to 10000
15 | 100 to 1000 | 100 to 1000 | 1000 to 10000 | 100 to 1000 | Cc1cn2cc(-c3cc4ncn(C5CCNCC5)c(=O)c4s3)cc(C)c2n1 [Compound 261] | 100 to 1000
16 | 1000 to 10000 | 1000 to 10000 | 1000 to 10000 | 1000 to 10000 | Cc1cn2nc(-c3cc4ccn(C5CCN(C)CC5)c(=O)c4s3)cc(C)c2n1 [Compound 809] | 1000 to 10000
17 | 100 to 1000 | 1000 to 10000 | 1000 to 10000 | 1000 to 10000 | Cc1nc(-c2cc3ncn(C4CCNCC4)c(=O)c3s2)cc2cn(C)nc12 [Compound 271] | 1000 to 10000
18 | 100 to 1000 | 100 to 1000 | 100 to 1000 | 100 to 1000 | Cc1cn2nc(-c3cc4ncn(C5CCNCC5)c(=O)c4s3)cc2c(C)n1 [Compound 262] | 100 to 1000
